Earlier results, collected in patent US20120196858A1, “METHOD OF PROMOTING APOPTOSIS AND INHIBITING METASTASIS” (Poniard Pharmaceuticals ,Inc., priority 2009, published 2012).

System: lung carcinoma xenografts
Conditions: previous studies; cited from earlier work

Question: Which tumor microvessel density does the source give for `CN(c1ncccc1CNc1nc(Nc2ccc3c(c2)CC(=O)N3)ncc1C(F)(F)F)S(C)(=O)=O` [PF-562,271] here?
Answer: reduced tumor microvessel density
